Reference: article PMC10384011, “m-Terphenylamines, Acting as Selective COX-1 Inhibitors, Block Microglia Inflammatory Response and Exert Neuroprotective Activity” (Molecules, 2023)

Columns and labels:
[1] = molecular target: T1, ovine COX-1 (Ovis aries, UniProt P05979); assay: Cyclooxygenase colorimetric inhibitor screening assay, COX-1; type: biochemical;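 further: COX peroxidase activity read colorimetrically as oxidized TMPD at 590 nm, arachidonic acid as substrate, inhibitors tested at 0.001–50 µM from DMSO stocks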
T1 construct: purchased Cayman Chemicals 701050
T1 sequence (P05979 25-600): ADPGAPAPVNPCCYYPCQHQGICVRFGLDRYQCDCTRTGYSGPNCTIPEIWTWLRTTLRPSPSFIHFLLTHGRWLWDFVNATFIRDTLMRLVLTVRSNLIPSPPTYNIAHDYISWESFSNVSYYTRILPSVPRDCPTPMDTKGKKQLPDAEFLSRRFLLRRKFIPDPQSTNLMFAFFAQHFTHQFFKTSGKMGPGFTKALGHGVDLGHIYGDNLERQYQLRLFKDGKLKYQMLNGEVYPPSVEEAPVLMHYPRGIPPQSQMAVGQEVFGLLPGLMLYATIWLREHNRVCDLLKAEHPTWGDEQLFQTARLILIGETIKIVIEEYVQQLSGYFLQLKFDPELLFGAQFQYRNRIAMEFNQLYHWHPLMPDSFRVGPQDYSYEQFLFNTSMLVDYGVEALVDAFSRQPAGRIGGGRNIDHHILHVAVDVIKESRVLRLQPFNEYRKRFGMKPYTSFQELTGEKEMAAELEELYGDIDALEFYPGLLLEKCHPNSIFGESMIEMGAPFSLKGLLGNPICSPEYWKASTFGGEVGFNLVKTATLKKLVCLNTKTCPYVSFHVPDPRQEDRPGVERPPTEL
Description: (§1) Newly synthesized compounds were evaluated for their ability to inhibit ovine COX-1 or human COX-2 enzyme by measuring the extent (%) of enzyme activity inhibition at different concentrations (0.001, 0.01, 0.1, 1, 10, 50 μM). […] The assay kit measures the peroxidase component of COXs that is assayed colorimetrically by monitoring the appearance of oxidized N,N,N′,N′-tetramethyl-p-phenylenediamine (TMPD) a λ = 590 nm. […] Stock solutions of test compounds were dissolved in DMSO.

[2] = molecular target: T2, human COX-2 (Homo sapiens, UniProt P35354); assay: Cyclooxygenase colorimetric inhibitor screening assay, COX-2; type: biochemical; settings: human COX-2, colorimetric kit; read-out: hCOX-2; IC50;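 further: peroxidase activity of COX-2 followed colorimetrically through formation of oxidized TMPD at 590 nm, with arachidonic acid as substrate, compounds tested from 0.001 to 50 µM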
T2 construct: purchased Cayman Chemicals 701050
T2 sequence (P35354 18-604): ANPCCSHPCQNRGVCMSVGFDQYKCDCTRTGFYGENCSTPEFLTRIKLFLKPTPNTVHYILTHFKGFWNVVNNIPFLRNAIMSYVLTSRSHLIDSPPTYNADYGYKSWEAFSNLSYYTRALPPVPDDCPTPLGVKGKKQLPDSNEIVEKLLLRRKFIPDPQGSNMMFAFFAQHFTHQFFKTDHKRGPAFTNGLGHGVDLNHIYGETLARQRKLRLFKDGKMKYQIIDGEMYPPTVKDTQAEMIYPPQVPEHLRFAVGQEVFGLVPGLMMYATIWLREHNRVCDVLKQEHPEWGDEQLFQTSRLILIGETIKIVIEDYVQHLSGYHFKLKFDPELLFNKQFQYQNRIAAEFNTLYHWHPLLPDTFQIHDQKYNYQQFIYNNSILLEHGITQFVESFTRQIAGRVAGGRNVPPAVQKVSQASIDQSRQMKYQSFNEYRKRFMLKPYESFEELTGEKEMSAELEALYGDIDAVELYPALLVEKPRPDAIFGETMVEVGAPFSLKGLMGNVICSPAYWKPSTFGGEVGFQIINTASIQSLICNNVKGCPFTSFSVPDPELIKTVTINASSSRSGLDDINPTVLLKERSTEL
Description: as §1

[3] = system: BV2 microglia cells; assay: ROS production (H2DCFDA) in LPS-treated BV2 microglia; type: cell-based; settings: 3 μM, LPS 1 μg/mL, 24 h
Description: Activation of toll-like receptors (TLRs), particularly the TLR4 subtype, is closely associated with the production of reactive oxygen and nitrogen species that contribute to neuronal death in the CNS. In this connection, NADPH oxidase enzymes are the main ones responsible for ROS production induced by NF-κB nuclear translocation. For this reason, we decided to assess the ROS levels of BV2 microglia cells treated with LPS and the effect of our compounds under this toxicity protocol. To this end, the compounds, at different concentrations (3 μM of 3a, 3b, and 3d and 10 μM of 3c) were incubated with 1 μg/mL LPS for 24 h. After this period, ROS production was measured with the fluorescent probe H2DCFDA. Treatment with LPS increased by 1.75-fold the amount of ROS compared with control cells.
Cultures were seeded into flasks containing supplemented medium and kept at 37 °C in a humidified atmosphere of 5% CO2 and 95% air. For assays, BV-2 cells were subcultured in 48-well plates at a seeding density of 1 × 10^5 cells per well. Cells were treated with LPS (Sigma-Aldrich, Madrid, Spain) for 24 or 48 h before confluence in RPMI with 1% FBS.
To measure cellular ROS, we used the molecular probe 2′,7′-dichlorodihydrofluorescein diacetate (H2DCFDA). Glial cells were loaded with 5 µM H2DCFDA as it was previously described (Parada et al., 2015). Fluorescence was measured in a fluorescence microplate reader (FLUOstar Galaxy; BMG Labtech, Offenburg, Germany). Wavelengths of excitation and emission were 485 and 520 nm, respectively. The relative pixel intensity was measured in identical regions with (ImageJ 1.52a software, National Institutes of Health, Bethesda, MD, USA).

inhibition at 50 µM ([1]; ovine COX-1, 50 µM, read-out: oCOX-1, % Inhibition at 50 µM (converted)): 83%
IC50 ([1]; ovine COX-1, colorimetric kit, triplicate, read-out: oCOX-1, IC50): 1.1 ± 0.18 µM
COX-1 selectivity (in words) ([1]; ovine COX-1 vs human COX-2): complete selectivity towards COX-1
IC50 [2]: > 50 µM
Compound: Cc1ccc(-c2cc(N)cc(-c3ccccc3)c2)cc1 [Compound 3b, 4-Methyl-5′-amino-m-terphenyl]
ROS production induced by LPS [3]: significantly reverted ROS production almost to basal levels
